What was measured:
Experiment in all cases: KINOMEscan
Type in all cases: binding
Details in all cases: read-out: % Ctrl
MARK2 = biological target: T1, MARK2 (Homo sapiens, UniProt Q7KZI7)
T1 construct: purchased DiscoveRx KINOMEscan

FLT3(R834Q) = biological target: T2, FLT3(R834Q) (Homo sapiens, UniProt P36888, R834Q)
T2 construct: purchased DiscoveRx KINOMEscan

TNIK = biological target: T3, TNIK (Homo sapiens, UniProt Q9UKE5)
T3 construct: purchased DiscoveRx KINOMEscan

TNNI3K = biological target: T4, TNNI3K (Homo sapiens, UniProt Q59H18)
T4 construct: purchased DiscoveRx KINOMEscan

DLK = biological target: T5, DLK (Homo sapiens, UniProt Q12852)
T5 construct: purchased DiscoveRx KINOMEscan

OSR1 = biological target: T6, OSR1 (Homo sapiens, UniProt O95747)
T6 construct: purchased DiscoveRx KINOMEscan

p38-gamma = biological target: T7, p38-gamma (Homo sapiens, UniProt P53778)
T7 construct: purchased DiscoveRx KINOMEscan

FGFR4 = biological target: T8, FGFR4 (Homo sapiens, UniProt P22455)
T8 construct: purchased DiscoveRx KINOMEscan

TAOK1 = biological target: T9, TAOK1 (Homo sapiens, UniProt Q7L7X3)
T9 construct: purchased DiscoveRx KINOMEscan

HIPK2 = biological target: T10, HIPK2 (Homo sapiens, UniProt Q9H2X6)
T10 construct: purchased DiscoveRx KINOMEscan

YSK4 = biological target: T11, YSK4 (Homo sapiens, UniProt Q56UN5)
T11 construct: purchased DiscoveRx KINOMEscan

S6K1 = biological target: T12, S6K1 (Homo sapiens, UniProt P23443)
T12 construct: purchased DiscoveRx KINOMEscan

ABL1(F317L)-P = biological target: T13, ABL1(F317L)-P (Homo sapiens, UniProt P00519, F317L)
T13 construct: purchased DiscoveRx KINOMEscan

YANK2 = biological target: T14, YANK2 (Homo sapiens, UniProt Q9NY57)
T14 construct: purchased DiscoveRx KINOMEscan

MAP4K3 = biological target: T15, MAP4K3 (Homo sapiens, UniProt Q8IVH8)
T15 construct: purchased DiscoveRx KINOMEscan

PKN1 = biological target: T16, PKN1 (Homo sapiens, UniProt Q16512)
T16 construct: purchased DiscoveRx KINOMEscan

TAOK2 = biological target: T17, TAOK2 (Homo sapiens, UniProt Q9UL54)
T17 construct: purchased DiscoveRx KINOMEscan

BLK = biological target: T18, BLK (Homo sapiens, UniProt P51451)
T18 construct: purchased DiscoveRx KINOMEscan

TRKC = biological target: T19, TRKC (Homo sapiens, UniProt Q16288)
T19 construct: purchased DiscoveRx KINOMEscan

CSNK1G1 = biological target: T20, CSNK1G1 (Homo sapiens, UniProt Q9HCP0)
T20 construct: purchased DiscoveRx KINOMEscan

STK35 = biological target: T21, STK35 (Homo sapiens, UniProt Q8TDR2)
T21 construct: purchased DiscoveRx KINOMEscan

EPHB3 = biological target: T22, EPHB3 (Homo sapiens, UniProt P54753)
T22 construct: purchased DiscoveRx KINOMEscan

EPHA5 = biological target: T23, EPHA5 (Homo sapiens, UniProt P54756)
T23 construct: purchased DiscoveRx KINOMEscan

GRK7 = biological target: T24, GRK7 (Homo sapiens, UniProt Q8WTQ7)
T24 construct: purchased DiscoveRx KINOMEscan

MEK2 = biological target: T25, MEK2 (Homo sapiens, UniProt P36507)
T25 construct: purchased DiscoveRx KINOMEscan

YSK1 = biological target: T26, YSK1 (Homo sapiens, UniProt O00506)
T26 construct: purchased DiscoveRx KINOMEscan

TYK2(JH2D.-pseudoK.) = biological target: T27, TYK2(JH2D.-pseudoK.) (Homo sapiens, UniProt P29597)
T27 construct: TYK2(JH2D.-pseudoK.); purchased DiscoveRx KINOMEscan

MST3 = biological target: T28, MST3 (Homo sapiens, UniProt Q9Y6E0)
T28 construct: purchased DiscoveRx KINOMEscan

RPS6KA4(KD2-C-t.) = biological target: T29, RPS6KA4(KD2-C-t.) (Homo sapiens, UniProt O75676)
T29 construct: RPS6KA4(KD2-C-t.); purchased DiscoveRx KINOMEscan

LKB1 = biological target: T30, LKB1 (Homo sapiens, UniProt Q15831)
T30 construct: purchased DiscoveRx KINOMEscan

NIM1 = biological target: T31, NIM1 (Homo sapiens, UniProt Q8IY84)
T31 construct: purchased DiscoveRx KINOMEscan

PAK3 = biological target: T32, PAK3 (Homo sapiens, UniProt O75914)
T32 construct: purchased DiscoveRx KINOMEscan

ASK2 = biological target: T33, ASK2 (Homo sapiens, UniProt O95382)
T33 construct: purchased DiscoveRx KINOMEscan

BRAF(V600E) = biological target: T34, BRAF(V600E) (Homo sapiens, UniProt P15056, V600E)
T34 construct: purchased DiscoveRx KINOMEscan

PIK3CA(H1047L) = biological target: T35, PIK3CA(H1047L) (Homo sapiens, UniProt P42336, H1047L)
T35 construct: purchased DiscoveRx KINOMEscan

TNK2 = biological target: T36, TNK2 (Homo sapiens, UniProt Q07912)
T36 construct: purchased DiscoveRx KINOMEscan

ROS1 = biological target: T37, ROS1 (Homo sapiens, UniProt P08922)
T37 construct: purchased DiscoveRx KINOMEscan

TYRO3 = biological target: T38, TYRO3 (Homo sapiens, UniProt Q06418)
T38 construct: purchased DiscoveRx KINOMEscan
T38 sequence (Q06418 41-890): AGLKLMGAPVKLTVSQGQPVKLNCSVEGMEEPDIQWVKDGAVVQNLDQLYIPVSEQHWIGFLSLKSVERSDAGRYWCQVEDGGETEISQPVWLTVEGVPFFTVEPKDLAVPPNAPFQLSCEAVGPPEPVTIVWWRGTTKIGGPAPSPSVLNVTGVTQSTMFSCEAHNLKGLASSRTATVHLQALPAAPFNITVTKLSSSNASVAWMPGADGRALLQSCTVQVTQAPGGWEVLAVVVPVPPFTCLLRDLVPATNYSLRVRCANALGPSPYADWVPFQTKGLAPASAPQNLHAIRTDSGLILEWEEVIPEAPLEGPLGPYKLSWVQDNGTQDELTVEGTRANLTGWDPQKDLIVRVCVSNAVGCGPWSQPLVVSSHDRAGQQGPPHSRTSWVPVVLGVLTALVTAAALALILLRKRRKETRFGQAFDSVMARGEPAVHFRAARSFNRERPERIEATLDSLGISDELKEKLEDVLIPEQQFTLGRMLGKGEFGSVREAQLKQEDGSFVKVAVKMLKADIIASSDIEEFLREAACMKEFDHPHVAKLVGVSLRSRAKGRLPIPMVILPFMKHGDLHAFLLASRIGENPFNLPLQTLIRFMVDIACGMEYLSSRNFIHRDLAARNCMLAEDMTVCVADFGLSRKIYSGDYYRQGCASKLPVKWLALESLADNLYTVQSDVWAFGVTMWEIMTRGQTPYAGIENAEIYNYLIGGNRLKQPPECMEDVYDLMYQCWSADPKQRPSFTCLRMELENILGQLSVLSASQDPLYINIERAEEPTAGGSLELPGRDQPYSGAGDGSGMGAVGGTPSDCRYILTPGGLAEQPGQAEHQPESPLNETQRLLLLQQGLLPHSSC

T18 sequence (P51451 whole entry): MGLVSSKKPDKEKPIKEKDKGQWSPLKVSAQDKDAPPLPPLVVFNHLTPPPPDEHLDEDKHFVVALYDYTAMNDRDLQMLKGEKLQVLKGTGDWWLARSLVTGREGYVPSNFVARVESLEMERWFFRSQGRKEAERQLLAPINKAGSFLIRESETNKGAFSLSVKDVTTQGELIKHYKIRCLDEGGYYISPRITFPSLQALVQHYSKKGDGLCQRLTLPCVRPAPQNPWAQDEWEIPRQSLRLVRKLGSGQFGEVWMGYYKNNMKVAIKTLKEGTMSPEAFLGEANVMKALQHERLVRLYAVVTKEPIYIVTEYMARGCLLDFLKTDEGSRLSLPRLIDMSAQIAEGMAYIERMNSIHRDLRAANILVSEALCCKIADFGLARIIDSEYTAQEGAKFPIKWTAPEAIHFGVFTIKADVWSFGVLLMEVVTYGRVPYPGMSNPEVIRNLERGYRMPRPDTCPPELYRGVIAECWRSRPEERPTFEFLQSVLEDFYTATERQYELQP
T11 sequence (Q56UN5 whole entry): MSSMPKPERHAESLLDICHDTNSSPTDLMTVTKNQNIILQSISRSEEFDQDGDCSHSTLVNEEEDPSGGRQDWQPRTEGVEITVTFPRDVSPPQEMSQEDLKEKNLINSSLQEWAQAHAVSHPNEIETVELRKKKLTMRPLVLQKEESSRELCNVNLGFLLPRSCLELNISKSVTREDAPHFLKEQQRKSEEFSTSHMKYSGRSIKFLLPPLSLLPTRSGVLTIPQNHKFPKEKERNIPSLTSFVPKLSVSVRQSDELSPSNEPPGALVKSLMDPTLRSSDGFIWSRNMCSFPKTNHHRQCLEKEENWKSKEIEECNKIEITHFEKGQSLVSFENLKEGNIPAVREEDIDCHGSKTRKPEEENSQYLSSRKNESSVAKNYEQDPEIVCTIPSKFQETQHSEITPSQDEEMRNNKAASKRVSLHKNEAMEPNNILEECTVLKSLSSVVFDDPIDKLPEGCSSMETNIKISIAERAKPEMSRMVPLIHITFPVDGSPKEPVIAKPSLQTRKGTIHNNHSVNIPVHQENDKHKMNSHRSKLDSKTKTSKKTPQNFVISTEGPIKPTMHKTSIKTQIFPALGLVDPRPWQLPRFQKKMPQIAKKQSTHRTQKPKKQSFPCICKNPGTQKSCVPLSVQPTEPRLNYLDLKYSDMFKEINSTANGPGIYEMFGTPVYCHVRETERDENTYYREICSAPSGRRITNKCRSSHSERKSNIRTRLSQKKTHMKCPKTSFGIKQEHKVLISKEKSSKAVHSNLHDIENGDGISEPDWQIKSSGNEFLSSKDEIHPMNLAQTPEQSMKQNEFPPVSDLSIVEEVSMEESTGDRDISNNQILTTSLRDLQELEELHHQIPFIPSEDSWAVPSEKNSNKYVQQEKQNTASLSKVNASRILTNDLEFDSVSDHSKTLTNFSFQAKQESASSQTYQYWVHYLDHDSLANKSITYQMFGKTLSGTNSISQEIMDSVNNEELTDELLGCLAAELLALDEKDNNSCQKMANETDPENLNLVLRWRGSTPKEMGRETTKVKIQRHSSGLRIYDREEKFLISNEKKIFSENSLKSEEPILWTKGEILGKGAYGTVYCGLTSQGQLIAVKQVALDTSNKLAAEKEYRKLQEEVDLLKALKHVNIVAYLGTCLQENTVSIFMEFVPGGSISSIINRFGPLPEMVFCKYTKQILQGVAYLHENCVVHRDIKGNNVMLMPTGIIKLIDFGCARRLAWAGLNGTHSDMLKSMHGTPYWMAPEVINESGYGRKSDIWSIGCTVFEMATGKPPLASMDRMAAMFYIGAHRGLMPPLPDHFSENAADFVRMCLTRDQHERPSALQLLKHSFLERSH
T4 sequence (Q59H18 whole entry): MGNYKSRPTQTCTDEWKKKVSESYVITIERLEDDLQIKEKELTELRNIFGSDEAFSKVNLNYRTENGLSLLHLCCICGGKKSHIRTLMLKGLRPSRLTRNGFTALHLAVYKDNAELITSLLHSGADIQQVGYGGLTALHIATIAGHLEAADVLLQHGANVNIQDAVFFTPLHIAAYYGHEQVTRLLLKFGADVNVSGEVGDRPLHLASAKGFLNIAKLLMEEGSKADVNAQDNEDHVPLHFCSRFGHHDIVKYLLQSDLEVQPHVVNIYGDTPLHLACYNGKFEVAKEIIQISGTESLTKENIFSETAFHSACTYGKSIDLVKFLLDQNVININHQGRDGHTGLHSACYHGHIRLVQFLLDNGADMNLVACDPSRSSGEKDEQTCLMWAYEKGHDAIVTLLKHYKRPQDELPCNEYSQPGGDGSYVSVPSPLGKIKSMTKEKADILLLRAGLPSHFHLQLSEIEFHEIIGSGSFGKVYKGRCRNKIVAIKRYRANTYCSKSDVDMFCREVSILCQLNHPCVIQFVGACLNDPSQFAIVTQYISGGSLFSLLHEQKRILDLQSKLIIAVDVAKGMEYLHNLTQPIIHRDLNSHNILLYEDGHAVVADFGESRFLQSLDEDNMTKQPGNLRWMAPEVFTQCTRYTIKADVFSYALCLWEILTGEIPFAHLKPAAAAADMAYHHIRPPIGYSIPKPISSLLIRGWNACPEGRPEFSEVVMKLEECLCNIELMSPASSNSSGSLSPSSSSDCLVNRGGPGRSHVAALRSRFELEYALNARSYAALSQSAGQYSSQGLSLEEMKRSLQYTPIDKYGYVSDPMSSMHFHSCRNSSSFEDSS
T9 sequence (Q7L7X3 whole entry): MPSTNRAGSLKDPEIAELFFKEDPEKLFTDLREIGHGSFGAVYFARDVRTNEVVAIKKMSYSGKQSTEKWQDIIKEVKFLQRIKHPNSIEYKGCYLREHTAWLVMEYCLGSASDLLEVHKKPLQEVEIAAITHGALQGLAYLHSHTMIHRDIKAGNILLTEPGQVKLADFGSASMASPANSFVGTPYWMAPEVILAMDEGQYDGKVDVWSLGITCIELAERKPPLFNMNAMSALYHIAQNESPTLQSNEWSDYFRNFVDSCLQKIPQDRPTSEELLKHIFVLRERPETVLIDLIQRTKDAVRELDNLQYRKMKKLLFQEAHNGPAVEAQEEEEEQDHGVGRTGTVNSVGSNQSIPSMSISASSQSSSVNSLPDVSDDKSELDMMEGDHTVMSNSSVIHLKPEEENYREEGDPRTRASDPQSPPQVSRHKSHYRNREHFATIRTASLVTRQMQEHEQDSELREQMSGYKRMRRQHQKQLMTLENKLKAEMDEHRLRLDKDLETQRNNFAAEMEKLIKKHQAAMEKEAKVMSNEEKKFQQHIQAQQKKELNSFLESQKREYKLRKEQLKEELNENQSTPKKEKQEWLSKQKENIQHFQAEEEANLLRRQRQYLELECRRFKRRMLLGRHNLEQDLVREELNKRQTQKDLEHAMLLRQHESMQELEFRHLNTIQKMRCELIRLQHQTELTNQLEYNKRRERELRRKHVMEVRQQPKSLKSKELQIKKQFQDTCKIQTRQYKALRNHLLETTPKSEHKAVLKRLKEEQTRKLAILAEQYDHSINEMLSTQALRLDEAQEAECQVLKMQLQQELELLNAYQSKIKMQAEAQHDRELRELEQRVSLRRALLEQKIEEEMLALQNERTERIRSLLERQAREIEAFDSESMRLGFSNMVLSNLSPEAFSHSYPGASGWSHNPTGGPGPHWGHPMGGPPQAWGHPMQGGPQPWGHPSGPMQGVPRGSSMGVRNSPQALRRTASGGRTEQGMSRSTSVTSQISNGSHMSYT
T21 sequence (Q8TDR2 whole entry): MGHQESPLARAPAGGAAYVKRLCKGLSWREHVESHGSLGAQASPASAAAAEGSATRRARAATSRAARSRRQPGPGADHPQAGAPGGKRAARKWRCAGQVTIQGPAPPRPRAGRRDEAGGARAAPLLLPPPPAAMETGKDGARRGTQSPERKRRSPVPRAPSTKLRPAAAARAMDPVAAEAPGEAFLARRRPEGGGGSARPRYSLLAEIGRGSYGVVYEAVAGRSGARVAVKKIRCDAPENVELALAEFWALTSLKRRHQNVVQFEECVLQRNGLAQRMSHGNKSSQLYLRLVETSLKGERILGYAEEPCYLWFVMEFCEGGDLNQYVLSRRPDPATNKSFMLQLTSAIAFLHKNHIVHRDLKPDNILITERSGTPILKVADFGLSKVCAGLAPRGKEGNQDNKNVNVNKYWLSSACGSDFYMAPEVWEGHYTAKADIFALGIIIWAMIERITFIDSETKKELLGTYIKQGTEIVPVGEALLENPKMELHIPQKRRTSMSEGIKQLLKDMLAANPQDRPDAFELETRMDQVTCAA

In the case of `CN1CCC(CNc2ccc3ncc(C(=O)Nc4cccc(OC(F)(F)F)c4)n3n2)CC1` [Cpd 2], the remaining binding at 1 µM (MARK2) is reported as 96%, the remaining binding at 1 µM (FLT3(R834Q)) is reported as 100% and the remaining binding at 1 µM (TNIK) is reported as 81%. For the same compound, the remaining binding at 1 µM (TNNI3K) was 100%, the remaining binding at 1 µM (DLK) was 100% and the remaining binding at 1 µM (OSR1) was 100%. For the same compound, the remaining binding at 1 µM (p38-gamma) was 91%, the remaining binding at 1 µM (FGFR4) was 100% and the remaining binding at 1 µM (TAOK1) was 82%. For the same compound, the remaining binding at 1 µM (HIPK2) was 68%, the remaining binding at 1 µM (YSK4) was 71% and the remaining binding at 1 µM (S6K1) was 93%. The remaining binding at 1 µM (ABL1(F317L)-P) was 100%, the remaining binding at 1 µM (YANK2) was 100% and the remaining binding at 1 µM (MAP4K3) was 95%. It also gave a remaining binding at 1 µM (PKN1) of 100%, a remaining binding at 1 µM (TAOK2) of 100% and a remaining binding at 1 µM (BLK) of 100%. It also gave a remaining binding at 1 µM (TRKC) of 70%, a remaining binding at 1 µM (CSNK1G1) of 99% and a remaining binding at 1 µM (STK35) of 92%. It also gave a remaining binding at 1 µM (EPHB3) of 86%, a remaining binding at 1 µM (EPHA5) of 100% and a remaining binding at 1 µM (GRK7) of 41%. It also gave a remaining binding at 1 µM (MEK2) of 90%, a remaining binding at 1 µM (YSK1) of 95% and a remaining binding at 1 µM (TYK2(JH2D.-pseudoK.)) of 12%. It also gave a remaining binding at 1 µM (MST3) of 96%, a remaining binding at 1 µM (RPS6KA4(KD2-C-t.)) of 100% and a remaining binding at 1 µM (LKB1) of 96%. It also gave a remaining binding at 1 µM (NIM1) of 78%, a remaining binding at 1 µM (PAK3) of 98% and a remaining binding at 1 µM (ASK2) of 99%. It also gave a remaining binding at 1 µM (BRAF(V600E)) of 100%, a remaining binding at 1 µM (PIK3CA(H1047L)) of 93% and a remaining binding at 1 µM (TNK2) of 99%. For the same compound, the remaining binding at 1 µM (ROS1) was 91% and the remaining binding at 1 µM (TYRO3) was 89%.

From paper PMC7407272, “Induction of Lysosome Membrane Permeabilization as a Therapeutic Strategy to Target Pancreatic Cancer Stem Cells” (Cancers, 2020)
